Several values for one entry are separate records, joined by “and”; a condition that tells them apart may be missing. Equal entries are not always repeated. Toxic doses and inconclusive results are not listed. Rule as the data show it: active = T/C of 150% or more; inactive = T/C below 125%.
System: L1210 leukemia ip in BDF1 mice, survival T/C
Assay: NCI In Vivo Anticancer Drug Screen. Data for tumor model L1210 Leukemia (intraperitoneal) in B6D2F1 (BDF1) mice
Settings: endpoint: mean survival time, higher = longer survival
How it was run: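 Value reflects the ratio of survival in compound-treated mice to survival in vehicle-treated controls, with both groups carrying the same transplanted tumor.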

[1] = dose: 12.5 mg/kg/injection, schedule: Q01DX009 (ip), vehicle: saline with Tween-80
[2] = dose: 25.0 mg/kg/injection, schedule: Q01DX009 (ip), vehicle: saline with Tween-80
[3] = dose: 100.0 mg/kg/injection, schedule: Q04DX003 (ip), vehicle: saline
[4] = dose: 200.0 mg/kg/injection, schedule: Q04DX003 (ip), vehicle: saline
[5] = dose: 400.0 mg/kg/injection, schedule: Q04DX003 (ip), vehicle: saline
[6] = dose: 100.0 mg/kg/injection, schedule: Q01DX009 (ip), vehicle: saline with Tween-80
[7] = dose: 200.0 mg/kg/injection, schedule: Q01DX009 (ip), vehicle: saline with Tween-80
[8] = dose: 400.0 mg/kg/injection, schedule: Q01DX009 (ip), vehicle: saline with Tween-80
[9] = dose: 100.0 mg/kg/injection, schedule: Q01DX001 (ip), vehicle: saline
[10] = dose: 200.0 mg/kg/injection, schedule: Q01DX001 (ip), vehicle: saline
[11] = dose: 100.0 mg/kg/injection, schedule: Q01DX009 (ip), vehicle: Klucel (hydroxypropylcellulose) (HPC)
[12] = dose: 200.0 mg/kg/injection, schedule: Q01DX009 (ip), vehicle: Klucel (hydroxypropylcellulose) (HPC)
[13] = dose: 400.0 mg/kg/injection, schedule: Q01DX009 (ip), vehicle: Klucel (hydroxypropylcellulose) (HPC)
[14] = dose: 100.0 mg/kg/injection, schedule: Q01DX001 (ip), vehicle: carboxymethylcellulose (CMC)
[15] = dose: 200.0 mg/kg/injection, schedule: Q01DX001 (ip), vehicle: carboxymethylcellulose (CMC)
[16] = dose: 400.0 mg/kg/injection, schedule: Q01DX001 (ip), vehicle: carboxymethylcellulose (CMC)
[17] = dose: 100.0 mg/kg/injection, schedule: Q04DX003 (ip), vehicle: Klucel (hydroxypropylcellulose) (HPC)
[18] = dose: 200.0 mg/kg/injection, schedule: Q04DX003 (ip), vehicle: Klucel (hydroxypropylcellulose) (HPC)

Measured: T/C

C=CC1CCCCC1C=C (stereo unspecified)
inactive: [1] 104 % of control | [2] 102 % of control | dose: 50.0 mg/kg/injection, schedule: Q01DX009 (ip), vehicle: saline with Tween-80 102 % of control

C1=C(C2=CCCCC2)CCCC1
inactive: dose: 100.0 mg/kg/injection, schedule: Q01DX009 (ip), vehicle: acetone 108 % of control | [3] 112 % of control | dose: 200.0 mg/kg/injection, schedule: Q01DX009 (ip), vehicle: acetone 100 % of control | [4] 104 % of control | dose: 400.0 mg/kg/injection, schedule: Q01DX009 (ip), vehicle: acetone 108 % of control | [5] 96 % of control

CCCCCC1SC1CC1SC1CCCCCCCC(=O)N1CCOCC1 (stereo unspecified)
inactive: [6] 98 % of control

O=C(O)C(Cl)(Br)C(Cl)c1ccccc1 (stereo unspecified)
inactive: [6] 93 % of control | [7] 91 % of control | [8] 95 % of control

N=C1N=C(N)CS1
inactive: [9] 95 % of control | [10] 104 % of control | dose: 400.0 mg/kg/injection, schedule: Q01DX001 (ip), vehicle: saline 101 % of control

Oc1ccccc1C=NCCN1CC1.Oc1ccccc1C=NCCN1CC1.[Ni+2]
inactive: [1] 88 % of control | [2] 96 % of control | [3] 98 % of control

CC(=O)Nc1ccc([I+]c2ccc([N+](=O)[O-])cc2)cc1
inactive: dose: 6.25 mg/kg/injection, schedule: Q01DX009 (ip), vehicle: Klucel (hydroxypropylcellulose) (HPC) 90 % of control | dose: 12.5 mg/kg/injection, schedule: Q01DX009 (ip), vehicle: Klucel (hydroxypropylcellulose) (HPC) 98 % of control | dose: 25.0 mg/kg/injection, schedule: Q01DX009 (ip), vehicle: Klucel (hydroxypropylcellulose) (HPC) 104 % of control | dose: 50.0 mg/kg/injection, schedule: Q01DX009 (ip), vehicle: Klucel (hydroxypropylcellulose) (HPC) 106 % of control | [11] 101 % of control | [7] 109 % of control

O=C1NC(=O)C(c2ccc(Cl)cc2)(c2ccc(Cl)cc2)N1
inactive: dose: 45.0 mg/kg/injection, schedule: Q01DX009 (ip), vehicle: Klucel (hydroxypropylcellulose) (HPC) 99 % of control | dose: 65.0 mg/kg/injection, schedule: Q01DX009 (ip), vehicle: Klucel (hydroxypropylcellulose) (HPC) 95 % of control | [11] 100 % of control | [3] 96 % of control | dose: 150.0 mg/kg/injection, schedule: Q01DX009 (ip), vehicle: Klucel (hydroxypropylcellulose) (HPC) 103 % of control | [12] 100 % of control | [4] 92 % of control | [13] 113 % of control | [5] 97 % of control

Cc1cc(C)cc(OCC#CCN(C)c2ccccc2)c1
inactive: dose: 100.0 mg/kg/injection, schedule: Q04DX002 (ip), vehicle: Klucel (hydroxypropylcellulose) (HPC) 99 % of control | dose: 200.0 mg/kg/injection, schedule: Q04DX002 (ip), vehicle: Klucel (hydroxypropylcellulose) (HPC) 99 % of control | dose: 400.0 mg/kg/injection, schedule: Q04DX002 (ip), vehicle: Klucel (hydroxypropylcellulose) (HPC) 96 % of control

CC(=S)Oc1cccc(C)c1
inactive: dose: 50.0 mg/kg/injection, schedule: Q01DX001 (ip), vehicle: carboxymethylcellulose (CMC) 102 % of control | [14] 98 % of control | [15] 96 % of control | [16] 104 % of control

CCSC1C(OC(C)=O)C(C(CI)OC(C)=O)OC1n1cc(C)c(=O)[nH]c1=O (stereo unspecified)
inactive: dose: 100.0 mg/kg/injection, schedule: Q01DX005 (ip), vehicle: saline 93 % of control | dose: 200.0 mg/kg/injection, schedule: Q01DX005 (ip), vehicle: saline 98 % of control

CC(C(c1ccc(Br)cc1)c1ccccc1Cl)[N+](=O)[O-] (stereo unspecified)
inactive: [3] 95 % of control | [4] 86 % of control | [5] 101 % of control

CN(C(=S)Nc1ccccc1)c1cc(N2CCCC2)ccn1
inactive: [9] 98 % of control | [10] 98 % of control

CCOC(CCc1c(-c2ccc([N+](=O)[O-])cc2)nc(N)[nH]c1=O)OCC
inactive: [6] 95 % of control | [7] 111 % of control | [8] 95 % of control

CCCC(CCC)(S(=O)(=O)CC)S(=O)(=O)CC
inactive: [14] 97 % of control | [15] 97 % of control | [16] 92 % of control

CCCCN1C(=O)C(c2ccccc2)C2(CCN(C)CC2)C1=O (stereo unspecified)
inactive: dose: 25.0 mg/kg/injection, schedule: Q01DX001 (ip), vehicle: Klucel (hydroxypropylcellulose) (HPC) 93 % of control | dose: 50.0 mg/kg/injection, schedule: Q01DX001 (ip), vehicle: Klucel (hydroxypropylcellulose) (HPC) 91 % of control | dose: 100.0 mg/kg/injection, schedule: Q01DX001 (ip), vehicle: Klucel (hydroxypropylcellulose) (HPC) 97 % of control and 98 % of control

CS(=O)(=O)N(c1nc2ccccc2s1)S(C)(=O)=O
inactive: dose: 100.0 mg/kg/injection, schedule: Q04DX003 (ip), vehicle: carboxymethylcellulose (CMC) 95 % of control | dose: 200.0 mg/kg/injection, schedule: Q04DX003 (ip), vehicle: carboxymethylcellulose (CMC) 93 % of control | dose: 400.0 mg/kg/injection, schedule: Q04DX003 (ip), vehicle: carboxymethylcellulose (CMC) 95 % of control

Cc1cccc(C)c1Nc1n[nH]c(=S)s1
inactive: dose: 100.0 mg/kg/injection, schedule: Q04DX002 (ip), vehicle: saline with Tween-80 102 % of control | dose: 200.0 mg/kg/injection, schedule: Q04DX002 (ip), vehicle: saline with Tween-80 105 % of control | dose: 400.0 mg/kg/injection, schedule: Q04DX002 (ip), vehicle: saline with Tween-80 105 % of control

C[CH2][Pb]([CH2]C)([CH2]C)[S]c1ccccn1
inactive: dose: 25.0 mg/kg/injection, schedule: Q04DX002 (sc), vehicle: olive oil, sesame oil, peanut oil 95 % of control | dose: 50.0 mg/kg/injection, schedule: Q04DX002 (sc), vehicle: olive oil, sesame oil, peanut oil 100 % of control | dose: 100.0 mg/kg/injection, schedule: Q04DX002 (sc), vehicle: olive oil, sesame oil, peanut oil 100 % of control

CCOC(=O)/C=C\COC(=O)CC#N
inactive: [6] 102 % of control | [7] 107 % of control | [8] 98 % of control

N#CC(NC(=O)NCCCl)c1ccccc1 (stereo unspecified)
inactive: [17] 104 % of control | [18] 101 % of control

O=[N+]([O-])c1cc([N+](=O)[O-])c(Br)cc1Cl
inactive: dose: 10.0 mg/kg/injection, schedule: Q04DX003 (ip), vehicle: Klucel (hydroxypropylcellulose) (HPC) 93 % of control | dose: 20.0 mg/kg/injection, schedule: Q04DX003 (ip), vehicle: Klucel (hydroxypropylcellulose) (HPC) 96 % of control

COc1ccc(C(O)c2c(CN(C)C)c3ccccc3n2C)cc1 (stereo unspecified)
inactive: dose: 100.0 mg/kg/injection, schedule: Q04DX002 (ip), vehicle: other 106 % of control

NC(=O)c1cn(C2OC(CO)C(O)C2O)c2nc(Cl)nc(N)c12 (stereo unspecified)
inactive: dose: 3.12 mg/kg/injection, schedule: Q01DX009 (ip), vehicle: saline 96 % of control | dose: 6.25 mg/kg/injection, schedule: Q01DX009 (ip), vehicle: saline 106 % of control | dose: 12.5 mg/kg/injection, schedule: Q01DX009 (ip), vehicle: saline 101 % of control | dose: 25.0 mg/kg/injection, schedule: Q01DX009 (ip), vehicle: saline 106 % of control | [4] 115 % of control

CNC(=O)C1C2CCC(C2)C1C(=O)NC (stereo unspecified)
inactive: dose: 75.0 mg/kg/injection, schedule: Q04DX003 (ip), vehicle: saline 97 % of control | [3] 96 % of control | dose: 150.0 mg/kg/injection, schedule: Q04DX003 (ip), vehicle: saline 95 % of control | [4] 96 % of control | dose: 300.0 mg/kg/injection, schedule: Q04DX003 (ip), vehicle: saline 97 % of control | [5] 96 % of control

COc1cccc(/C=C/c2nccc3ccccc23)c1OC
inactive: [11] 90 % of control | [17] 106 % of control | [12] 91 % of control | [18] 98 % of control | [13] 91 % of control | dose: 400.0 mg/kg/injection, schedule: Q04DX003 (ip), vehicle: Klucel (hydroxypropylcellulose) (HPC) 90 % of control
